Measurements published in US5856305A, “Peptides endowed with antiinflammatory activity” (Italfarmaco S.P.A., priority 1994, dated 1999).

Test system: adjuvant arthritis
Experiment: adjuvant arthritis test
Assay type: in vivo, Wistar rats
Conditions: for Clinical scores (± S.E.): 50 μg/rat peptide in PBS intradermally at day 4, 5 and 6 after M. tuberculosis, score 0 to 18; for Incidence of arthritis (arthritic rats/total rats): 50 μg/rat at day 4, 5 and 6
Experimental: The peptide of the present invention is useful in the treatment of inflammatory pathologies of different kinds and origins, as it is shown by pharmacological test (adjuvant arthritis test) as follows.
15 Wistar rats (C. River; weight 130-140 g) and anaesthetized with CO2, were intradermically administered (injection at the base of the tie) with 0.1 ml of a suspension of 10 mg/ml of heat-inactivated M. tuberculosis (Strain C, DT and PN; Central Vet. Labs--GB), in sterile paraffin oil. The rats were divided in 3 groups of 5 animals each, and at day 4, 5 and 6 from the above treatment, following the same method for inducing arthritis, they were administered with 50 μg/rat dose of the peptide I in 100 μl of PBS for the first group, with PBS only for the second group, while the third group was not treated. The course of the arthritis was monitored according to the following scheme of clinical scores:
The scores range from 0 to 4 for each paw; furthermore one additional score is assigned if there are nodules on the tie, and another futher score is assigned if ears are involved, thereby the score is 0 at minimum and 18 at maximum.

H-AKVNIKPLEDKILVQANEAETTTAS-OH [1-25]
Clinical scores (± S.E.) (day 7): 0
Clinical scores (± S.E.) (day 8): 0
Incidence of arthritis (arthritic rats/total rats) (day 10): 1/5
Clinical scores (± S.E.) (day 10): 0.6 ± 0.6
Incidence of arthritis (arthritic rats/total rats) (day 11): 5/5
Clinical scores (± S.E.) (day 11): 3.8 ± 0.4
Incidence of arthritis (arthritic rats/total rats) (day 12): 5/5
Clinical scores (± S.E.) (day 12): 10.0 ± 0.7
Clinical scores (± S.E.) (day 13): 12.6 ± 0.6
